Measured values as given in patent US11578087B2, “Oxaborole esters and uses thereof” (priority 2016, dated 2023).

The molecules below were run on IL3000 T. congolense (drug sensitive) strain (assay: In vitro Alamar Blue 72 h drug sensitivity assay for T. congolense). Conditions: Trypanosoma congolense, 72 h, bloodstream form, 69 h + 3 h Resazurin, 34° C., read-out: IC50: I Org. Growth T. congolense 3 d.
Assay type: cell-based, Trypanosoma congolense
Protocol: Example 252. In Vitro Alamar Blue 72 h Drug Sensitivity Assay for T. congolense
Compounds were tested in vitro for chemotherapeutic potency against the IL3000 T. congolense (drug sensitive) strain, using the Alamar Blue assay with several modifications. Test compounds were prepared as 10 mg/mL DMSO stocks for each assay run. Compounds were assayed in at least three separate, independent test runs and an 11-point dilution curve was used to determine the IC50 values. Bloodstream form trypanosomes were supported in HMI media containing 20% bovine serum and were incubated with test compounds for 69 h at 34° C. in a humidified atmosphere containing 5% CO2. Thereafter, 10 μL of Resazurin dye (12.5 mg in 100 mL of phosphate buffered saline, Sigma-Aldrich, Buchs, Switzerland) were added for an additional 3 h. Plates were then read using a fluorescent plate reader (Spectramax, Gemini XS, Bucher Biotec, Basel, Switzerland) using an excitation wavelength of 536 nm and an emission wavelength of 588 nm. Data points were averaged to generate sigmoidal dose-response curves and IC50 values were determined using Softmax Pro 5.2 software.

Row | SMILES | IC50 [nM]
1 | CC(C)[C@H](NC(=O)c1ccc2c(c1)B(O)OC2)C(=O)OCc1ccccc1 [Example 6-005, Benzyl (1-hydroxy-1,3-dihydrobenzo[c][1,2]oxaborole-6-carbonyl)-L-valinate] | 0.51 to 9.99
2 | O=C(N[C@@H](CO)C(=O)OCc1ccccc1)c1ccc2c(c1)B(O)OC2 [Example 6-007, Benzyl (1-hydroxy-1,3-dihydrobenzo[c][1,2]oxaborole-6-carbonyl)-L-serinate] | 10 to 5000
3 | CSCC[C@H](NC(=O)c1ccc2c(c1)B(O)OC2)C(=O)OCc1ccccc1 [Example 6-008, Benzyl (1-hydroxy-1,3-dihydrobenzo[c][1,2]oxaborole-6-carbonyl)-L-methioninate] | 0.51 to 9.99
4 | O=C(N[C@@H](Cc1ccccc1)C(=O)OCc1ccccc1)c1ccc2c(c1)B(O)OC2 [Example 6-009, Benzyl (1-hydroxy-1,3-dihydrobenzo[c][1,2]oxaborole-6-carbonyl)-L-phenylalaninate] | 0.51 to 9.99
5 | NC(=O)C[C@H](NC(=O)c1ccc2c(c1)B(O)OC2)C(=O)OCc1ccccc1 [Example 6-010, Benzyl (1-hydroxy-1,3-dihydrobenzo[c][1,2]oxaborole-6-carbonyl)-L-asparaginate] | 10 to 5000

These molecules were tested on T. cruzi amastigote (Td Tomato-modified) in Vero cells (assay: In vitro IC50 measurement of T. cruzi amastigote killing using Td Tomato-modified T. cruzi). Conditions: Trypanosoma cruzi, 72 h, fluorescence, read-out: IC50: I Org. amastigote Growth T. cruzi 3 d.
Assay type: cell-based
Protocol: Example 254. In Vitro IC50 Measurement of T. cruzi Amastigote Killing Using Td Tomato-Modified T. cruzi
The T. cruzi parasites used in this assay were genetically modified to express Td Tomato fluorescent protein. Vero cells (African green monkey kidney epithelial cells) were harvested from continuous cultures using trypsin and added to the inner 60 wells of 96-well Greiner Bio One plates (plate catalog #655090) at 200 ul/well of […]. Cells were allowed to adhere for 1 h before infection with T. cruzi. T. cruzi for infection were harvested from previously-infected Vero cells, washed, pelleted and resuspended at 5×10^6/mL. 50 uL of parasites were added to each well containing Vero cells. Compounds were prepared from 5 mM stock concentrations in DMSO to final concentrations in wells ranging from 5 uM to 5 nM. Wells were provided for negative controls, lacking compounds. Plates were placed into a 37° C. incubator for 20 min, then a “Day 0” reading was taken on a Synergy H4 plate reader to record initial fluorescence levels, at 544 (excitation) and 612 nm (emission). 96-well plates were placed in Tupperware containers with wet paper towels and incubated at 37° C. incubator for 72 h. After 72 h plates were reread (Day 3 reading) and data analyzed using Excel and/or Graphpad software. Day 0 fluorescence was subtracted from Day 3 to remove input parasite fluorescence. Growth curves are generated and 50% and 90% inhibitory concentrations are determined by nonlinear regression analysis.

Row | SMILES | IC50 [nM]
6 | CC(C)[C@H](NC(=O)c1ccc2c(c1)B(O)OC2)C(=O)OCc1ccccc1 [Example 6-005, Benzyl (1-hydroxy-1,3-dihydrobenzo[c][1,2]oxaborole-6-carbonyl)-L-valinate] | 21 to 999
7 | O=C(N[C@@H](CO)C(=O)OCc1ccccc1)c1ccc2c(c1)B(O)OC2 [Example 6-007, Benzyl (1-hydroxy-1,3-dihydrobenzo[c][1,2]oxaborole-6-carbonyl)-L-serinate] | ≥ 1000
8 | CSCC[C@H](NC(=O)c1ccc2c(c1)B(O)OC2)C(=O)OCc1ccccc1 [Example 6-008, Benzyl (1-hydroxy-1,3-dihydrobenzo[c][1,2]oxaborole-6-carbonyl)-L-methioninate] | 21 to 999
9 | O=C(N[C@@H](Cc1ccccc1)C(=O)OCc1ccccc1)c1ccc2c(c1)B(O)OC2 [Example 6-009, Benzyl (1-hydroxy-1,3-dihydrobenzo[c][1,2]oxaborole-6-carbonyl)-L-phenylalaninate] | ≥ 1000
10 | NC(=O)C[C@H](NC(=O)c1ccc2c(c1)B(O)OC2)C(=O)OCc1ccccc1 [Example 6-010, Benzyl (1-hydroxy-1,3-dihydrobenzo[c][1,2]oxaborole-6-carbonyl)-L-asparaginate] | ≥ 1000
11 | COCC1(COC(=O)[C@@H](NC(=O)c2ccc3c(c2C)B(O)OC3)C(C)C)COC1 [Example 6-158, (3-(Methoxymethyl)oxetan-3-yl)methyl (1-hydroxy-7-methyl-1,3-dihydrobenzo[c][1,2]oxaborole-6-carbonyl)-L-valinate] | 21 to 999
12 | CC(C)[C@H](NC(=O)c1ccc2c(c1)B(O)OC2)C(=O)OCc1ccc(F)c(F)c1 [Example 6-185, 3,4-difluorobenzyl (1-hydroxy-1,3-dihydrobenzo[c][1,2]oxaborole-6-carbonyl)-L-valinate] | 21 to 999
13 | Cc1c(C(=O)N[C@H](C(=O)OCc2cccnc2)C(C)C)ccc2c1B(O)OC2 [Example 6-187, Pyridin-3-ylmethyl (1-hydroxy-7-methyl-1,3-dihydrobenzo[c][1,2]oxaborole-6-carbonyl)-L-valinate] | ≤ 20
14 | Cc1c(C(=O)N[C@H](C(=O)OCc2ccccn2)C(C)C)ccc2c1B(O)OC2 [Example 6-191, Pyridin-2-ylmethyl (1-hydroxy-7-methyl-1,3-dihydrobenzo[c][1,2]oxaborole-6-carbonyl)-L-valinate] | ≤ 20
15 | COc1c(C(=O)N[C@H](C(=O)OCc2ccccc2)C(C)C)ccc2c1B(O)OC2 [Example 6-194, Benzyl (1-hydroxy-7-methoxy-1,3-dihydrobenzo[c][1,2]oxaborole-6-carbonyl)-L-valinate] | 21 to 999
16 | COc1c(C(=O)N[C@H](C(=O)OCc2ccc(F)cc2)C(C)C)ccc2c1B(O)OC2 [Example 6-195, 4-fluorobenzyl (1-hydroxy-7-methoxy-1,3-dihydrobenzo[c][1,2]oxaborole-6-carbonyl)-L-valinate] | 21 to 999
17 | Cc1c(C(=O)N[C@H](C(=O)O[C@H](C)c2ccccc2)C(C)C)ccc2c1B(O)OC2 [Example 6-198, (R)-1-phenylethyl (1-hydroxy-7-methyl-1,3-dihydrobenzo[c][1,2]oxaborole-6-carbonyl)-L-valinate] | ≤ 20
18 | Cc1c(C(=O)N[C@H](C(=O)O[C@@H](C)c2ccccc2)C(C)C)ccc2c1B(O)OC2 [Example 6-199, (S)-1-phenylethyl (1-hydroxy-7-methyl-1,3-dihydrobenzo[c][1,2]oxaborole-6-carbonyl)-L-valinate] | 21 to 999
19 | Cc1c(C(=O)N[C@H](C(=O)OCc2cncc(N3CCNCC3)n2)C(C)C)ccc2c1B(O)OC2 [Example 6-205, (6-(piperazin-1-yl)pyrazin-2-yl)methyl (1-hydroxy-7-methyl-1,3-dihydrobenzo[c][1,2]oxaborole-6-carbonyl)-L-valinate] | ≥ 1000
20 | Cc1c(C(=O)N[C@H](C(=O)OCc2cccc(N3CCNCC3)n2)C(C)C)ccc2c1B(O)OC2 [Example 6-213, (6-(piperazin-1-yl)pyridin-2-yl)methyl (1-hydroxy-7-methyl-1,3-dihydrobenzo[c][1,2]oxaborole-6-carbonyl)-L-valinate] | ≥ 1000
21 | Cc1c(C(=O)N[C@H](C(=O)OCCN2CCC3(CC2)COC3)C(C)C)ccc2c1B(O)OC2 [Example 6-217, 2-(2-oxa-7-azaspiro[3.5]nonan-7-yl)ethyl (1-hydroxy-7-methyl-1,3-dihydrobenzo[c][1,2]oxaborole-6-carbonyl)-L-valinate] | ≥ 1000
22 | Cc1c(C(=O)N[C@H](C(=O)OCC2COCCO2)C(C)C)ccc2c1B(O)OC2 (stereo partly drawn) [Example 6-227, (1,4-dioxan-2-yl)methyl (1-hydroxy-7-methyl-1,3-dihydrobenzo[c][1,2]oxaborole-6-carbonyl)-L-valinate] | ≤ 20
23 | Cc1c(C(=O)N[C@H](C(=O)OCc2ccccn2)C(C)(C)O)ccc2c1B(O)OC2 [Example 6-230, Pyridin-2-ylmethyl (S)-3-hydroxy-2-(1-hydroxy-7-methyl-1,3-dihydrobenzo[c][1,2]oxaborole-6-carboxamido)-3-methylbutanoate] | 21 to 999
24 | Cc1c(C(=O)N[C@H](C(=O)OCCN2CC3CC(C2)O3)C(C)C)ccc2c1B(O)OC2 [Example 6-231, 2-(6-oxa-3-azabicyclo[3.1.1]heptan-3-yl)ethyl (1-hydroxy-7-methyl-1,3-dihydrobenzo[c][1,2]oxaborole-6-carbonyl)-L-valinate] | 21 to 999
25 | Cc1c(C(=O)N[C@H](C(=O)OCc2cncc(N(C)C)n2)C(C)C)ccc2c1B(O)OC2 [Example 6-232, (6-(dimethylamino)pyrazin-2-yl)methyl (1-hydroxy-7-methyl-1,3-dihydrobenzo[c][1,2]oxaborole-6-carbonyl)-L-valinate] | ≤ 20
26 | Cc1c(C(=O)N[C@H](C(=O)OCC2(C)CCOC2)C(C)C)ccc2c1B(O)OC2 (stereo partly drawn) [Example 6-233, (3-methyltetrahydrofuran-3-yl)methyl (1-hydroxy-7-methyl-1,3-dihydrobenzo[c][1,2]oxaborole-6-carbonyl)-L-valinate] | ≤ 20
27 | Cc1c(C(=O)N[C@H](C(=O)OC[C@@H]2CCOC2)C(C)C)ccc2c1B(O)OC2 [Example 6-234, ((R)-tetrahydrofuran-3-yl)methyl (1-hydroxy-7-methyl-1,3-dihydrobenzo[c][1,2]oxaborole-6-carbonyl)-L-valinate] | ≤ 20
28 | Cc1c(C(=O)N[C@H](C(=O)OC[C@H]2CCOC2)C(C)C)ccc2c1B(O)OC2 [Example 6-235, ((S)-tetrahydrofuran-3-yl)methyl (1-hydroxy-7-methyl-1,3-dihydrobenzo[c][1,2]oxaborole-6-carbonyl)-L-valinate] | ≤ 20
29 | Cc1c(C(=O)N[C@H](C(=O)OCC2CCC(F)(F)CC2)C(C)(C)O)ccc2c1B(O)OC2 [Example 6-248, (4,4-difluorocyclohexyl)methyl (S)-3-hydroxy-2-(1-hydroxy-7-methyl-1,3-dihydrobenzo[c][1,2]oxaborole-6-carboxamido)-3-methylbutanoate] | 21 to 999
30 | Cc1c(C(=O)N[C@H](C(=O)OCC2(O)CCOC2)C(C)C)ccc2c1B(O)OC2 (stereo partly drawn) [Example 6-250, (3-hydroxytetrahydrofuran-3-yl)methyl (1-hydroxy-7-methyl-1,3-dihydrobenzo[c][1,2]oxaborole-6-carbonyl)-L-valinate] | ≥ 1000
